Measurements as given in patent publication US6890727B2, “Diagnostic assay for Alzheimer's disease: assessment of Aβ abnormalities” (The General Hospital Corporation, priority 1994, dated 2005).
Entries after “also recorded” stand apart in the source; their conditions may differ.

Experiments:
[1] = 65Zn2+ binding to immobilized peptide (dot-blot, Scatchard competition analysis); details: unlabeled metal ions 50 μM total
Procedure: ^65Zn^2+ Binding Studies—Dissolved peptides (1.2 nMol, unless other wise stated) were dot-blotted onto polyvinylidene difluoride membrane (0.2-μm pore size; Pierce Chemical Co.), washed twice with chelating buffer (200 μl×100 mM NaCl, 20 mM Tris-HCl, 1 mM EDTA, pH 7.4), then five times with blocking buffer (200 μl×100 mM NaCl, 20 mM Tris-HCl, 1 mM MnCl2, pH 7.4), and then incubated (60 min, 20° C.) with ^65Zn (unless otherwise stated 130,000 cpm, […] ^65ZnCl2 in 200 μl of blocking buffer±competing metal ion chloride). The dot-blot was then washed with blocking buffer (5×200 μl), the dot excised, placed in a test tube, and assayed by γ-counting (11% efficiency). The equilibration volume for stoichiometry estimates was regarded as 6×200 μl. The 214 nm UV absorbance of the unbound flow-through was assayed to determine the total amount of peptide remaining bound onto the membrane. […] To alter the pH, the ^65Zn incubation was carried out in the presence of 100 mM buffer: MOPS (pH 6.5-7.0), MES (pH 5.0-6.0), acetate (pH 3.5-4.5). The dot-blot apparatus was washed with detergent and EDTA (50 mM) then rinsed and siliconized between use.
Aliquots of Aβ were incubated (60 min) with ^65Zn^2+ in the presence of varying concentrations of unlabeled Zn^2+ (0.01-50 μM total). Values shown are means±S.D., n≧3. […] (FIG. 1b) depicts specificity of the Zn^2+ binding site for various metals. Aβ was incubated (60 min) with ^65 Zn^2+ (157 nM, 138,000 cpm) and competing unlabeled metal ions (50 μM total). […] Percent binding of total counts ^65Zn^2+/min added is corrected for the amounts (in nanomoles) of peptides adhering to the membrane. […] 157 nM ^65Zn (138,000 cpm) is used in this experiment to probe immobilized peptide (1.6 nmol).

[2] = Clinical study of oral zinc supplementation: cognition and plasma APP levels; assay type: in vivo, human
Procedure: The cerebral cortex, and especially the hippocampus, contains the highest concentrations of zinc in the body (C. J. Frederickson, M. A. Klitenick, W. I. Manton, J. B. Kirkpatrick, Brain Res. 273:335 (1983)), and is exposed to extreme fluctuations of extracellular zinc levels (0.15 to 300 μM, C. J. Frederickson, Int. Rev. Neurobiol. 31:145 (1989)), e.g. during synaptic transmission (S. Y. Assaf and S.-H. Chung, Nature 308:734 (1984); G. A. Howell, M. G. Welch, C. J. Frederickson, Nature 308:736 (1984)). The cortical vasculature contains an intraluminal zinc concentration of 20 μM (I. J. T. Davies, M. Musa, T. L. Dormandy, J. Clin. Pathol. 21:359 (1968)), but the perivascular interstitial zinc concentration is 0.15/μM (C. J. Frederickson, Int. Rev. Neurobiol. 31:145 (1989)). Both sites of high zinc concentration gradients are severely and consistently affected by the pathological lesions of AD (B. T. Hyman, G. W. Van Hoesen, L. J. Kroner, A. R. Damasio, Ann. Neurol. 20:472 (1986); G. G. Glenner and C. W. Wong, Biochem. Biophys. Res. Commun. 120:885 (1984)). […] Additional evidence for altered cerebral zinc metabolism in AD include decreased temporal lobe zinc levels (D. Wenstrup, W. D. Ehmann, W. R. Markesbery, Brain Res. 533:125 (1990); J. Constantinidis, Encephale 16:231 (1990); F. M. Corrigan, G. P. Reynolds, N. I. Ward, Biometals 6:149 (1993)), elevated (80%) CSF levels (C. O. Hershey et al, Neurology 33:1350 (1983)), an increase in extracellular Zn^2+-metalloproteinase activities in AD hippocampus (J. R. Backstrom, C. A. Miller, Z. A. Tökés, J. Neurochem. 58:983 (1992)), and decreased levels of astrocytic growth-inhibitory factor, a metallothionein-like protein which chelates zinc (Y. Uchida, K. Takio, K. Titani, Y. Ihara, M. Tomonaga, Neuron 7:337 (1991)). Recently, a clinical study assayed the effects of oral zinc supplementation (6.7-fold the recommended daily allowance, a dose commonly found in nutritional supplements) upon cognition and plasma APP levels in AD subjects and age-matched controls. […]

## [Zn+2] [Zn^2+, zinc]
[1]
  competition of unlabeled metal ion with ^65Zn^2+ for Aβ: capable of competing off the label
[2]; AD group, after four days of oral zinc supplementation
  drop in Mini-Mental State Examination scores: 31%
[2]; oral, 6.7-fold the recommended daily allowance
  effect on cognition in AD subjects: acute decline in cognition; also recorded: acutely adverse effect on cognition
[2]; same conditions
  effect on age-matched control subjects: remained unaffected
